Data taken from ChEMBL document CHEMBL1128654, “4,4-Diphenyl-7-perhydrothiapyrano[3,4-c]pyrrolone, a new series of substance P receptors antagonists” (Bioorg Med Chem Lett, 1995).

How the values were obtained:
Substance-P receptor [1] = molecular target: Substance-P receptor (Rattus norvegicus, UniProt P14600); experiment: Compound was tested for its binding affinity to NK1 receptor in [3H]SP binding assay on rat brain membranes.
Substance-P receptor [2] = molecular target: Substance-P receptor (Homo sapiens, UniProt P25103); experiment: Compound was tested for its binding affinity to NK1 receptor in [3H]SP binding assay on human IM9 lymphoblasts cultured cell line.
Chain of Substance-P receptor (Homo sapiens, UniProt P25103) (P25103 whole entry): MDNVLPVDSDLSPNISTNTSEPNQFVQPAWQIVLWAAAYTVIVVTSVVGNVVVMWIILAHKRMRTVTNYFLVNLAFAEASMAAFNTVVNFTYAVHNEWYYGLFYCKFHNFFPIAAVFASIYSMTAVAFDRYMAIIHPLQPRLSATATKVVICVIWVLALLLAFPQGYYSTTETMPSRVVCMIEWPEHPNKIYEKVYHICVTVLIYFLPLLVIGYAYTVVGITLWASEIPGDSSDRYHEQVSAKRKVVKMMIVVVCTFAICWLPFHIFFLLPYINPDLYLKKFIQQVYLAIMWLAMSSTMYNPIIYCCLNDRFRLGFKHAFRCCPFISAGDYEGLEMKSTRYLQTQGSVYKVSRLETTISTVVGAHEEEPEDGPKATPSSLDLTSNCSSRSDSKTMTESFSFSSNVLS

Rattus norvegicus [3] = experiment: Compound was administered orally and evaluated in vivo for its inhibition of SP-induced plasma extravasation in rat; assay type: functional; conditions: po
Rattus norvegicus [4] = experiment: Compound was administered intravenously and evaluated in vivo for its inhibition of SP-induced plasma extravasation in rat; assay type: functional; conditions: iv
Rattus norvegicus [5] = experiment: Compound was administered perorally and evaluated in vivo for its inhibition of SP-induced plasma extravasation in rat; assay type: functional; conditions: po

Chain of Substance-P receptor (Rattus norvegicus, UniProt P14600) (P14600 whole entry): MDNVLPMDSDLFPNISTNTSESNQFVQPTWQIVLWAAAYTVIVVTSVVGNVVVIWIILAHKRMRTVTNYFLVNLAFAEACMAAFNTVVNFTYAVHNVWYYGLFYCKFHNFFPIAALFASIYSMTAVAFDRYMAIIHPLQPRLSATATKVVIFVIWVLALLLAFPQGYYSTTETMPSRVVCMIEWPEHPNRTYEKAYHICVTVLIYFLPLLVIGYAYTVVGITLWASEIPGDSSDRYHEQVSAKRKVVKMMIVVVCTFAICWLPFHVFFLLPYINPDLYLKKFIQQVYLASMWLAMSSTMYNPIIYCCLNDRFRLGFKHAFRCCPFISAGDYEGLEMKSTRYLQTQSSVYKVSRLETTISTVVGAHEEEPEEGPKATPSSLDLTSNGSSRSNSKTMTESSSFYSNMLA

SMILES	IC50 (Substance-P receptor [1]) [nM]	IC50 (Substance-P receptor [2]) [nM]	ED50 (Rattus norvegicus [3]) [mg/kg]	ED50 (Rattus norvegicus [4]) [mg/kg]	ED50 (Rattus norvegicus [5]) [mg/kg]
COc1ccccc1CC(=N)N1C[C@@H]2C(=O)CCC(c3ccccc3)(c3ccccc3)[C@@H]2C1	8	49	–	–	–
CN(C)c1ccccc1CC(=O)N1C[C@H]2[C@@H](C1)C(c1ccccc1)(c1ccccc1)SC[C@@H]2O	77	370	–	–	–
COc1ccccc1[C@H](C)C(=O)N1C[C@@H]2[C@H](C1)C(c1ccccc1)(c1ccccc1)CC[C@@]2(O)c1ccccc1OC [DAPITANT]	1400	13	–	–	–
CN(C)c1ccccc1CC(=O)N1CC2C(=O)CSC(c3ccccc3)(c3ccccc3)C2C1 (stereo unspecified)	41	83	–	–	–
CN(C)c1ccccc1CC(=O)N1C[C@@H]2C(=O)C[S+]([O-])C(c3ccccc3)(c3ccccc3)[C@@H]2C1 (stereo partly specified)	470	–	–	–	–
COc1ccccc1CC(=N)N1CC2C(=O)CSC(c3ccccc3)(c3ccccc3)C2C1 (stereo unspecified)	2	9	> 10	< 1	–
COc1ccccc1[C@H](C)C(=O)N1C[C@@H]2[C@H](C1)[C@@](O)(c1ccccc1OC)CSC2(c1ccccc1)c1ccccc1	3000	38	–	–	–
COc1ccccc1[C@H](SC)C(=O)N1CC2C(=O)CSC(c3ccccc3)(c3ccccc3)C2C1 (stereo partly specified)	5	15	–	0.1	0.8
CN(C)CCCOc1ccccc1CC(=O)N1CC2C(=O)CSC(c3ccccc3)(c3ccccc3)C2C1 (stereo unspecified)	26	51	–	–	–
